Measured values from ChEMBL document CHEMBL1821608, “Fragment library screening reveals remarkable similarities between the G protein-coupled receptor histamine H₄ and the ion channel serotonin 5-HT₃A” (Bioorg Med Chem Lett, 2011).
Active and inactive are the calls of the source. The rule behind the calls is not given here.

What was measured:
[1] = molecular target: T1, 5-hydroxytryptamine receptor 3A (Homo sapiens) (UniProt P46098); assay: Displacement of [3H]granisetron from human 5-HT3AR expressed in HEK293 cells after 24 hrs by liquid scintillation counting; format: cell-based
T1 sequence (whole entry): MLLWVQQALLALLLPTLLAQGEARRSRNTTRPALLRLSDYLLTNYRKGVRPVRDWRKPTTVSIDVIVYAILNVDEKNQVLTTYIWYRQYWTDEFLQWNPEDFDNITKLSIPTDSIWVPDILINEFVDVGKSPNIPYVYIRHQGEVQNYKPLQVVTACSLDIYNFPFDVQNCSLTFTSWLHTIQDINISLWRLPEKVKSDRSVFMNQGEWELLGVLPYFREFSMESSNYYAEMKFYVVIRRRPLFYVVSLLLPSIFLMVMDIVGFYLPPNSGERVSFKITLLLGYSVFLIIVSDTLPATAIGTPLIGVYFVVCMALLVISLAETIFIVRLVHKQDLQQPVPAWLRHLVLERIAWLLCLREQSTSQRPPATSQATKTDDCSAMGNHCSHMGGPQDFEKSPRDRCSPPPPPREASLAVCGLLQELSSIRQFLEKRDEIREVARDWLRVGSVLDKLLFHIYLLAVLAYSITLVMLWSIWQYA

Histamine H4 receptor [2] = molecular target: T2, Histamine H4 receptor (Homo sapiens, UniProt Q9H3N8); assay: Displacement of [3H]histamine from human H4R receptor expressed in HEK293 cells at 10 uM after 1.5 hrs by liquid scintillation counting; format: cell-based
[3] = molecular target: T1, 5-hydroxytryptamine receptor 3A (Homo sapiens); assay: Inhibition of 5-HT3AR at 10 uM
Histamine H4 receptor [4] = molecular target: T2, Histamine H4 receptor; assay: Binding affinity to H4R receptor

pKi [1] | pKi (Histamine H4 receptor [2]) | SMILES | also measured
inactive |  | CN1CCN(c2cc(-c3ccccc3)ncn2)CC1 | 
 | inactive | N=C(N)NCCCc1ccccc1 | 
 |  | Nc1nc2c(c(N3CCNCC3)n1)CCCc1ccccc1-2 | inhibition [3]: 98%
 | inactive | Nc1ccc2cc3ccccc3nc2c1 | 
inactive |  | c1ccc(CNCCc2c[nH]cn2)cc1 | 
 |  | Nc1nc2c(c(N3CCNCC3)n1)CCC1=C2[C@@H]2CCCC[C@@H]2O1 | Ki (Histamine H4 receptor [4]): 79.4 nM

SMILES | pKi [1] | pKi (Histamine H4 receptor [2]) | also measured
c1cncc(Cc2c[nH]cn2)c1 | inactive |  | 
Clc1ccc(C2CCNC2)cc1 (stereo not drawn) |  | inactive | 
